The text below walks through data of patent publication US20250122171A1, “Substituted Amine Compounds, Compositions and Methods of Use” (Deep Apple Therapeutics, Inc., priority 2023, published 2025).

Where only a bound is given, the exact number is not on record here.

The target in this assay is T1, human MRGPRX2 (Homo sapiens, UniProt Q96LB1).
T1 construct: expressed in transfected cells; host or cells: FlpIn TRex HEK293 (TRex-MRGPRX2-HEK), doxycycline-induced
T1 sequence (Q96LB1 1-330): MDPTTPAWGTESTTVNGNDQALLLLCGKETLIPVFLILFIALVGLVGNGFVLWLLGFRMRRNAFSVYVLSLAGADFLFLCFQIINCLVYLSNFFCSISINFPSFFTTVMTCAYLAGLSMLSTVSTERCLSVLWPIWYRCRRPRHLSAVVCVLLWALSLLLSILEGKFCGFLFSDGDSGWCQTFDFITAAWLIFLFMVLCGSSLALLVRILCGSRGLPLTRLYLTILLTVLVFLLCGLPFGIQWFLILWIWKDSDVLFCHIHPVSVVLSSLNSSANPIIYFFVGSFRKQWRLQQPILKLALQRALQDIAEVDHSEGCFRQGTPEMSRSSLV
Description: MRGPRX2 Activity Assay (IP-1 HTRF, antagonist mode). The format is cell-based. Conditions: FlpIn TRex-MRGPRX2-HEK293 cells; versus 1 μM Cortistatin-14 agonist; 30 minutes preincubation. The procedure:
FlpIn TRex-MRGPRX2-HEK293 cells (herein TRex-MRPGRX2-HEK) stably transfected to express human MRGPRX2 were maintained at 37° C. with 5% CO2 and grown in DMEM supplemented with 10% FBS, 1% L-Glutamate, 1% penicillin/streptomycin, 100 ug/mL Hygromycin B, and 15 ug/mL Blasticidin.
GOI (MRGPRX2) expression was induced with 100 ng/mL of Doxycycline 18-24 hours prior to experiment, in flask. On the day of experiment, cells were lifted with TripLE Express and seeded in 384-well white walled opaque bottomed, assay plates, at 8,000 cells per well in 5 uL freshly made assay buffer (HBSS, 20 mM HEPES, 0.1% BSA and 10 mM LiCl). Compounds solubilized in 100% DMSO at 30 mM were serially diluted (1:4) first in 100% DMSO, and an intermediate plate of assay buffer was used to establish a final top concentration of 30 uM (in assay plate). Final DMSO concentration was kept constant at 1% across assay plates. […], at 30 mM stock concentration was solubilized in HBSS+0.1% BSA, stored at −20° C. in 5 μL aliquots and discarded after one freeze-thaw cycle. […].
Antagonist equilibrium was established with 30 minutes preincubation, followed by no wash, direct addition, and stimulation of agonist for 1 hour at 37° C./5% CO2. IP-1 standards and HTRF detection reagents were added according to the IP-one Gq kit protocol purchased from CisBio (part number 62IPAPEJ). The plate was read on an EnVision XCite plate reader. The HTRF ratio was then calculated from raw data (channel1/channel2×10,000) and analyzed using either GraphPad Prism or a custom Python script to calculate IC50 using Log[Antagonist] vs. response (4 parameter) nonlinear regression.
The molecule `C[C@H](C(=O)Nc1cn(Cc2ccc(F)cc2F)cn1)N1CCC(F)(F)[C@@H](c2cc[n+]([O-])cc2)C1` (single isomer, unassigned) [Compound 2] gave an IC50 of 2950 nM.
The molecule `C[C@@H](C(=O)Nc1cn(Cc2ccc(F)cc2F)cn1)N1CCC(F)(F)[C@H](c2cc[n+]([O-])cc2)C1` (single isomer, unassigned) [Compound 3] had an IC50 greater than 10000 nM.
The molecule `C[C@H](C(=O)Nc1cn(Cc2ccc(F)cc2F)cn1)N1CCC(F)(F)[C@H](c2cc[n+]([O-])cc2)C1` (single isomer, unassigned) [Compound 4] gave an IC50 greater than 10000 nM.
Then `C[C@@H](C(=O)Nc1cn(Cc2cc(F)cc(F)c2)cn1)N1CCC(F)(F)[C@@H](c2cc[n+]([O-])cc2)C1` (single isomer, unassigned) [Compound 6], with 1780 nM.
The molecule `C[C@H](C(=O)Nc1cn(Cc2ccc(F)cc2F)c(C(F)(F)F)n1)N1CCC(F)(F)[C@@H](c2cc[n+]([O-])cc2)C1` (single isomer, unassigned) [Compound 8] returned an IC50 of 9290 nM.
For `Cc1nc(NC(=O)[C@@H](C)N2CCC(F)(F)[C@@H](c3cc[n+]([O-])cc3)C2)cn1Cc1ccc(F)cc1F` (single isomer, unassigned) [Compound 10] the value was 1610 nM; for `C[C@@H](C(=O)Nc1nc2cc3c(cc2s1)OCO3)N1CCC(F)(F)[C@@H](c2cc[n+]([O-])cc2)C1` (single isomer, unassigned) [Compound 12], 196 nM; for `C[C@H](C(=O)Nc1cn([C@@H](C)c2cc(F)cc(F)c2)cn1)N1CCC(F)(F)[C@@H](c2cc[n+]([O-])cc2)C1` (single isomer, unassigned) [Compound 13], 233 nM.
For `C[C@H](c1cc(F)cc(F)c1)n1cnc(NC(=O)[C@H](C)N2CCC(F)(F)[C@@H](c3cc[n+]([O-])cc3)C2)c1` (single isomer, unassigned) [Compound 14] the value was 465 nM; for `C[C@@H](C(=O)Nc1cn([C@@H](C)c2cc(F)cc(F)c2)cn1)N1CCC(F)(F)[C@@H](c2cc[n+]([O-])cc2)C1` (single isomer, unassigned) [Compound 15], greater than 10000 nM.
For `C[C@H](C(=O)Nc1cn([C@H](C)c2cc(F)cc(F)c2)cn1)N1CCC(F)(F)[C@@H](c2cc[n+]([O-])cc2)C1` (single isomer, unassigned) [Compound 16] the value was greater than 10000 nM.
Turning to `Cc1nc(NC(=O)[C@H](C)N2CCC(F)(F)[C@@H](c3cc[n+]([O-])cc3)C2)cn1Cc1cc(F)cc(C#N)c1` (single isomer, unassigned) [Compound 17], the half-maximal inhibitory concentration (IC50) came to 125 nM. That is a sub-micromolar value.
Then `Cc1nc(NC(=O)[C@@H](C)N2CCC(F)(F)[C@@H](c3cc[n+]([O-])cc3)C2)cn1Cc1cc(F)cc(C#N)c1` (single isomer, unassigned) [Compound 18], with greater than 10000 nM; and `Cc1nc(NC(=O)[C@@H](C)N2CCC(F)(F)[C@@H](c3cc[n+]([O-])cc3)C2)cn1Cc1cc(F)cc(F)c1` (single isomer, unassigned) [Compound 20], with 193 nM; and `Cc1nc(NC(=O)[C@@H](C)N2CCC(F)(F)CC2)cn1Cc1cc(F)cc(F)c1` (single isomer, unassigned) [Compound 22], with 124 nM.
For `Cc1nc(NC(=O)[C@H](C)N2CCOCC2)cn1Cc1cc(F)cc(F)c1` (single isomer, unassigned) [Compound 23] the value was 700 nM.
In turn, `Cc1nc(NC(=O)[C@@H](C)N2CCOCC2)cn1Cc1cc(F)cc(F)c1` (single isomer, unassigned) [Compound 24] displayed an IC50 of 3910 nM.
For `C[C@@H](C(=O)Nc1cn(Cc2cc(F)cc(F)c2)c(C(F)(F)F)n1)N1CCC(F)(F)[C@@H](c2cc[n+]([O-])cc2)C1` (single isomer, unassigned) [Compound 25] the value was greater than 10000 nM.
As for `C[C@@H](C(=O)Nc1coc(Cc2cc(F)cc(F)c2)n1)N1CCC(F)(F)[C@@H](c2cc[n+]([O-])cc2)C1` (single isomer, unassigned) [Compound 27], the IC50 amounted to 587 nM.
With `C[C@@H](C(=O)Nc1cn(Cc2cc(F)cc(F)c2)cn1)N1CCC(F)(F)[C@@H](c2ccc(=O)[nH]c2)C1` (single isomer, unassigned) [Compound 54], the IC50 was found to be 432 nM.
For `C[C@H](C(=O)Nc1noc(Cc2cc(F)cc(F)c2)n1)N1CCC(F)(F)[C@@H](c2cc[n+]([O-])cc2)C1` (single isomer, unassigned) [Compound 57] the value was greater than 10000 nM.
`C[C@@H](C(=O)Nc1nc(Cc2cc(F)cc(F)c2)no1)N1CCC(F)(F)[C@@H](c2cc[n+]([O-])cc2)C1` (single isomer, unassigned) [Compound 58] came in with a half-inhibitory concentration (IC50) greater than 10000 nM.
For `C[C@H](C(=O)Nc1nc(Cc2cc(F)cc(F)c2)no1)N1CCC(F)(F)[C@@H](c2cc[n+]([O-])cc2)C1` (single isomer, unassigned) [Compound 59] the value was 432 nM.
As to `C[C@@H](C(=O)Nc1cn(Cc2cc(F)cc(F)c2)c(CF)n1)N1CCC(F)(F)[C@@H](c2cc[n+]([O-])cc2)C1` (single isomer, unassigned) [Compound 60], the IC50 was greater than 30000 nM.
Then `C[C@H](C(=O)Nc1cn(Cc2cc(F)cc(F)c2)c(CF)n1)N1CCC(F)(F)[C@@H](c2cc[n+]([O-])cc2)C1` (single isomer, unassigned) [Compound 61], with 477 nM; and `C[C@@H](C(=O)Nc1cn(Cc2cc(F)cc(F)c2)cn1)N1CCC(F)(F)[C@@H](c2ccc(=O)n(C)c2)C1` (single isomer, unassigned) [Compound 67], with 4330 nM; and `C[C@@H](C(=O)Nc1cn(Cc2cc(F)cc(F)c2)cn1)N1CCC(F)(F)[C@H](c2ccc(=O)n(C)c2)C1` (single isomer, unassigned) [Compound 69], with greater than 30000 nM.
For `C[C@H](C(=O)Nc1cn(Cc2cc(F)cc(F)c2)cn1)N1CCC(F)(F)[C@H](c2ccc(=O)n(C)c2)C1` (single isomer, unassigned) [Compound 70] the value was greater than 30000 nM; for `C[C@@H](C(=O)Nc1cn(Cc2cc(F)cc(F)c2)cn1)N1CCC(F)(F)[C@@H](c2c[nH]c(=O)c(CO)c2)C1` (single isomer, unassigned) [Compound 71], 2360 nM; for `C[C@@H](C(=O)Nc1cn(Cc2cc(F)cc(F)c2)cn1)N1CCC(F)(F)[C@H](c2c[nH]c(=O)c(CO)c2)C1` (single isomer, unassigned) [Compound 73], 8560 nM.
The molecule `C[C@H](C(=O)Nc1cn(Cc2cc(F)cc(F)c2)cn1)N1CCC(F)(F)[C@H](c2c[nH]c(=O)c(CO)c2)C1` (single isomer, unassigned) [Compound 74] returned an IC50 greater than 30000 nM.
For `C[C@H](C(=O)Nc1cn(Cc2cc(F)cc(F)c2)c(Cl)n1)N1CCC(F)(F)[C@@H](c2cc[n+]([O-])cc2)C1` (single isomer, unassigned) [Compound 81] the value was greater than 30000 nM; for `C[C@@H](C(=O)Nc1cn(Cc2cc(F)cc(F)c2)c(C(F)F)n1)N1CCC(F)(F)[C@@H](c2cc[n+]([O-])cc2)C1` (single isomer, unassigned) [Compound 82], 1170 nM.
`C[C@@H](C(=O)Nc1nc2ccccc2s1)N1CCC(F)(F)[C@@H](c2cc[n+]([O-])cc2)C1` (single isomer, unassigned) [Compound 84] showed an IC50 of 12700 nM.
Then `C[C@H](C(=O)Nc1cn2c(n1)CC[C@H]2c1cc(F)cc(F)c1)N1CCC(F)(F)[C@@H](c2cc[n+]([O-])cc2)C1` (single isomer, unassigned) [Compound 486], with 1180 nM.
For `C[C@@H](C(=O)Nc1cn2c(n1)CC[C@H]2c1cc(F)cc(F)c1)N1CCC(F)(F)[C@@H](c2cc[n+]([O-])cc2)C1` (single isomer, unassigned) [Compound 487] the value was 13800 nM; for `C[C@H](C(=O)Nc1cn2c(n1)CC[C@@H]2c1cc(F)cc(F)c1)N1CCC(F)(F)[C@@H](c2cc[n+]([O-])cc2)C1` (single isomer, unassigned) [Compound 488], 8810 nM; for `C[C@@H](C(=O)Nc1cn(Cc2cc(F)cc(F)c2)c(C(F)F)n1)N1CCC(F)(F)[C@H](c2c[nH]c(=O)c(CO)c2)C1` (single isomer, unassigned) [Compound 491], 1640 nM.
